Experimental data as given in ChEMBL document CHEMBL3525917, “Species difference in the mechanism of nonlinear pharmacokinetics of E2074, a novel sodium channel inhibitor, in rats, dogs, and monkeys” (Drug Metab Dispos, 2013).

Experiments:
[1] = Cmax in Sprague-Dawley rat at 30 mg/kg, po; type: ADME, organism-based; set-up: dose 30 mg/kg, route oral; settings: in vivo
[2] = AUC in Sprague-Dawley rat at 30 mg/kg, po; type: ADME, organism-based; set-up: dose 30 mg/kg, route oral; settings: plasma
[3] = Tmax in Sprague-Dawley rat at 10 mg/kg, po; type: ADME, organism-based; set-up: dose 10 mg/kg, route oral; settings: in vivo
[4] = Cmax in cynomolgus monkey at 10 mg/kg, po; type: ADME, organism-based, Macaca fascicularis; set-up: dose 10 mg/kg, route oral; settings: in vivo
[5] = Oral bioavailability in Sprague-Dawley rat at 10 mg/kg; type: ADME, organism-based; settings: in vivo
[6] = Half life in cynomolgus monkey at 1 mg/kg, iv; type: ADME, organism-based, Macaca fascicularis; set-up: dose 1 mg/kg, route intravenous; settings: in vivo
[7] = Clearance in beagle dog at 1 mg/kg, iv; type: ADME, organism-based, Canis lupus familiaris; set-up: dose 1 mg/kg, route intravenous; settings: in vivo
[8] = Tmax in wild-type mouse at 3 mg/kg, po; type: ADME, organism-based; set-up: dose 3 mg/kg, route oral; settings: in vivo
[9] = Half life in cynomolgus monkey at 3 mg/kg, po in presence of ketoconazole; type: ADME, organism-based, Macaca fascicularis; set-up: dose 3 mg/kg, route oral; settings: in vivo
[10] = system: Cynomolgus monkey; assay: Ratio of dose normalized Cmax in cynomolgus monkey at 10 mg/kg, po in presence of ketoconazole to dose normalized Cmax in cynomolgus monkey at 10 mg/kg, po; type: ADME, organism-based, Macaca fascicularis; settings: in vivo
[11] = Ratio of drug level in blood to plasma in beagle dog at 0.25 uM after 10 mins by equilibrium dialysis technique; type: ADME, Canis lupus familiaris; settings: blood and plasma
[12] = target: MDR1A (P-glycoprotein, ABCB1) (Mus musculus, UniProt P21447); assay: Activity of mouse MDR1A expressed in pig LLC-PK1 cells assessed as efflux ratio of permeability from basolateral to apical side to apical to basolateral side at 1 uM after 2 hrs; type: ADME, cell-based
[13] = Tmax in MDR1A/1B knock-out mouse at 3 mg/kg, po; type: ADME, organism-based; set-up: dose 3 mg/kg, route oral; settings: in vivo
[14] = Solubility of the compound in phosphate buffered saline at pH 7 to 7.2; type: physicochemical
[15] = Cmax in wild-type mouse at 3 mg/kg, po; type: ADME, organism-based; set-up: dose 3 mg/kg, route oral; settings: in vivo
[16] = Fraction unbound in cynomolgus monkey plasma at 0.25 uM by equilibrium dialysis technique; type: ADME, cell-free, Macaca fascicularis
[17] = system: Cynomolgus monkey; assay: Hepatic blood clearance in cynomolgus monkey; type: ADME, organism-based, Macaca fascicularis; settings: in vivo
[18] = Half life in cynomolgus monkey at 10 mg/kg, po in presence of ketoconazole; type: ADME, organism-based, Macaca fascicularis; set-up: dose 10 mg/kg, route oral; settings: in vivo
[19] = target: MDR1A (ABCB1, P-glycoprotein) (Mus musculus, UniProt P21447); assay: Activity of mouse MDR1A expressed in pig LLC-PK1 cells assessed as permeability from apical to basolateral side at 1 uM after 2 hrs; type: ADME, cell-based; settings: read-out: permeability
[20] = AUC in cynomolgus monkey at 10 mg/kg, po; type: ADME, organism-based, Macaca fascicularis; set-up: dose 10 mg/kg, route oral; settings: plasma
[21] = Ratio of drug level in brain to plasma in wild-type mouse at 3 mg/kg, po; type: ADME, organism-based; set-up: dose 3 mg/kg, route oral; settings: brain and plasma
[22] = Cmax in MDR1A/1B knock-out mouse at 3 mg/kg, po; type: ADME, organism-based; set-up: dose 3 mg/kg, route oral; settings: in vivo
[23] = Volume of distribution at steady state in beagle dog at 1 mg/kg, iv; type: ADME, organism-based, Canis lupus familiaris; set-up: dose 1 mg/kg, route intravenous; settings: in vivo, read-out: Vdss
[24] = Cmax in Sprague-Dawley rat at 10 mg/kg, po; type: ADME, organism-based; set-up: dose 10 mg/kg, route oral; settings: in vivo
[25] = AUC in cynomolgus monkey at 10 mg/kg, po in presence of ketoconazole; type: ADME, organism-based, Macaca fascicularis; set-up: dose 10 mg/kg, route oral; settings: plasma
[26] = AUC in cynomolgus monkey at 1 mg/kg, iv in presence of ketoconazole; type: ADME, organism-based, Macaca fascicularis; set-up: dose 1 mg/kg, route intravenous; settings: plasma
[27] = Tmax in beagle dog at 10 mg/kg, po; type: ADME, organism-based, Canis lupus familiaris; set-up: dose 10 mg/kg, route oral; settings: in vivo
[28] = Tmax in cynomolgus monkey at 3 mg/kg, po in presence of ketoconazole; type: ADME, organism-based, Macaca fascicularis; set-up: dose 3 mg/kg, route oral; settings: in vivo
[29] = Fraction unbound in beagle dog plasma at 0.25 uM by equilibrium dialysis technique; type: ADME, cell-free, Canis lupus familiaris
[30] = Cmax in cynomolgus monkey at 10 mg/kg, po in presence of ketoconazole; type: ADME, organism-based, Macaca fascicularis; set-up: dose 10 mg/kg, route oral; settings: in vivo
[31] = species: Rattus norvegicus; assay: Hepatic blood clearance in Sprague-Dawley rat; type: ADME, organism-based; settings: in vivo
[32] = AUC in Sprague-Dawley rat at 1 mg/kg, iv; type: ADME, organism-based; set-up: dose 1 mg/kg, route intravenous; settings: plasma
[33] = AUC in Sprague-Dawley rat at 3 mg/kg, po; type: ADME, organism-based; set-up: dose 3 mg/kg, route oral; settings: plasma
[34] = Drug metabolism in cynomolgus monkey intestinal microsomes by Michaelis-Menten plot analysis; type: ADME, Macaca fascicularis, Intestine, Microsome
[35] = Half life in Sprague-Dawley rat at 10 mg/kg, po; type: ADME, organism-based; set-up: dose 10 mg/kg, route oral; settings: in vivo
[36] = system: Liver microsome; assay: (§1) Drug metabolism in beagle dog liver microsomes after 30 mins by biphasic component Michaelis-Menten plot analysis; type: ADME, Canis lupus familiaris; settings: microsomes, 0.5 h
[37] = as §1; type: ADME, Canis lupus familiaris; settings: beagle, liver microsomes
[38] = Volume of distribution at steady state in Sprague-Dawley rat at 1 mg/kg, iv; type: ADME, organism-based; set-up: dose 1 mg/kg, route intravenous; settings: in vivo, read-out: Vdss
[39] = Drug metabolism in cynomolgus monkey liver microsomes after 15 mins by Michaelis-Menten plot analysis; type: ADME, Macaca fascicularis
[40] = Ratio of drug level in blood to plasma in cynomolgus monkey at 0.25 uM after 10 mins by equilibrium dialysis technique; type: ADME, Macaca fascicularis; settings: blood and plasma
[41] = Cmax in beagle dog at 3 mg/kg, po; type: ADME, organism-based, Canis lupus familiaris; set-up: dose 3 mg/kg, route oral; settings: in vivo
[42] = system: Cynomolgus monkey; assay: Ratio of dose normalized AUC in cynomolgus monkey at 1 mg/kg, iv in presence of ketoconazole to dose normalized AUC in cynomolgus monkey at 1 mg/kg, iv; type: ADME, organism-based, Macaca fascicularis; settings: in vivo
[43] = Blood clearance in Sprague-Dawley rat; type: ADME, organism-based
[44] = Oral bioavailability in beagle dog at 3 mg/kg; type: ADME, organism-based, Canis lupus familiaris; settings: in vivo
[45] = Tmax in cynomolgus monkey at 3 mg/kg, po; type: ADME, organism-based, Macaca fascicularis; set-up: dose 3 mg/kg, route oral; settings: in vivo
[46] = species: Canis familiaris; assay: Unbound intrinsic clearance in beagle dog; type: ADME, organism-based, Canis lupus familiaris; settings: in vivo
[47] = Volume of distribution at steady state in cynomolgus monkey at 1 mg/kg, iv in presence of ketoconazole; type: ADME, organism-based, Macaca fascicularis; set-up: dose 1 mg/kg, route intravenous; settings: in vivo, read-out: Vdss
[48] = Half life in Sprague-Dawley rat at 3 mg/kg, po; type: ADME, organism-based; set-up: dose 3 mg/kg, route oral; settings: in vivo
[49] = AUC in cynomolgus monkey at 3 mg/kg, po in presence of ketoconazole; type: ADME, organism-based, Macaca fascicularis; set-up: dose 3 mg/kg, route oral; settings: plasma
[50] = Cmax in double-cannulated Sprague-Dawley rat jugular vein at 10 mg/kg, po; type: ADME, organism-based; set-up: dose 10 mg/kg, route oral
[51] = Cmax in cynomolgus monkey at 3 mg/kg, po; type: ADME, organism-based, Macaca fascicularis; set-up: dose 3 mg/kg, route oral; settings: in vivo
[52] = Tmax in cynomolgus monkey at 10 mg/kg, po; type: ADME, organism-based, Macaca fascicularis; set-up: dose 10 mg/kg, route oral; settings: in vivo

Sequence of MDR1A (ABCB1, P-glycoprotein) (P21447 whole entry): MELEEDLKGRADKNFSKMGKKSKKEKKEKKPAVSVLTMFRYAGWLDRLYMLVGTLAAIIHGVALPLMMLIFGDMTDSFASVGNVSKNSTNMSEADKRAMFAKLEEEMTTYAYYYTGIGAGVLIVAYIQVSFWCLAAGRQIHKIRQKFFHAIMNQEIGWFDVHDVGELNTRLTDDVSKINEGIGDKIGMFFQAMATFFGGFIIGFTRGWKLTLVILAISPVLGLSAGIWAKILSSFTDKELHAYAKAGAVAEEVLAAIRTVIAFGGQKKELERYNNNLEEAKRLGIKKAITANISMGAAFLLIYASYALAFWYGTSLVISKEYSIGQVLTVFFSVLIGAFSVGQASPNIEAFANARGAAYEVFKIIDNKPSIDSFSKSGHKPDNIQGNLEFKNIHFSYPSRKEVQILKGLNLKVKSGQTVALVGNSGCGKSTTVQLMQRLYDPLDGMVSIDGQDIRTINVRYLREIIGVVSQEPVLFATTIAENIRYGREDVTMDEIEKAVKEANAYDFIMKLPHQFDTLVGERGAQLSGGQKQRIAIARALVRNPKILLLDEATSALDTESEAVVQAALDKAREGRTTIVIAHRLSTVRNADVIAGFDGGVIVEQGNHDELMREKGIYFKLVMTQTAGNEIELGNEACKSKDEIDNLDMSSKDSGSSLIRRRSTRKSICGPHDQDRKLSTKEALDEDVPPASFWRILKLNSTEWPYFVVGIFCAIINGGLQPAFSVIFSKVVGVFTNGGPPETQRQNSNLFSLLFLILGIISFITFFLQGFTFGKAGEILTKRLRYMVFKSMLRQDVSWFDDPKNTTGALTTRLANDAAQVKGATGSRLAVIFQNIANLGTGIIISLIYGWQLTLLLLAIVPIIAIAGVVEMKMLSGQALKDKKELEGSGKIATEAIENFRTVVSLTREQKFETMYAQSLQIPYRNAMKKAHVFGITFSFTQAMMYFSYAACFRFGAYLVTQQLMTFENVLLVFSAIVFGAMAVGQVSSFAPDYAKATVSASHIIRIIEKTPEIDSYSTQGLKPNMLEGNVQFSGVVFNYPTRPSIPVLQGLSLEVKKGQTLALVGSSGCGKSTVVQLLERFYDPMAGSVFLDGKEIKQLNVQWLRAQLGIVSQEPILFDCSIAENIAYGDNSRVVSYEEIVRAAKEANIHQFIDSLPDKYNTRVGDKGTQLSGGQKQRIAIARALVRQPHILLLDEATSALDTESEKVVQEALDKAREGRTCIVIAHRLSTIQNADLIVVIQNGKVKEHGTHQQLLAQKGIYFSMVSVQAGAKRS
Sequence of MDR1A (P-glycoprotein, ABCB1) (P21447 whole entry): as above

**Q.** What does the source list for `Cc1nn(C[C@H](F)CN2C3CCC2CC(OCc2cccc(F)c2)C3)c(=O)n1C` (some centres undefined)?
**A.** Cmax [1]: 1.36 µg/mL; AUC [2]: 1.42 µg·h/mL; Tmax [3]: 15 min; Cmax [4]: 0.47 µg/mL; bioavailability [5]: 5.3%; half-life [6]: 116 min; clearance [7]: 1.7 L/h/kg; Tmax [8]: 30 min; half-life [9]: 132 min; Ratio [10]: 4.5; blood plasma ratio at 10 min, 0.25 µM [11]: 0.86; efflux ratio at 2 h, 1 µM [12]: 3.14; Tmax [13]: 15 min; solubility [14]: > 2 mg/mL; Cmax [15]: 0.11 µg/mL; fraction unbound at 0.25 µM [16]: 0.676; CLH [17]: 2 L/h/kg; half-life [18]: 164 min; Papp A→B at 2 h, 1 µM [19]: 96.7 nm/s; AUC [20]: 1.58 µg·h/mL; Kp [21]: 2.4; Cmax [22]: 0.1 µg/mL; Vd [23]: 1.84 L/kg; Cmax [24]: 0.2 µg/mL; AUC [25]: 7.09 µg·h/mL; AUC [26]: 0.82 µg·h/mL; Tmax [27]: 30 min; Tmax [28]: 60 min; fraction unbound at 0.25 µM [29]: 0.601; Cmax [30]: 1.52 µg/mL; CLH [31]: 3.19 L/h/kg; AUC [32]: 0.31 µg·h/mL; AUC [33]: 0.02 µg·h/mL; Km ([34]; intestinal microsomes): 34.6 µM; Vmax ([34]; microsomes): 0.66 nmol/min/mg; half-life [35]: 34.2 min; Vmax [36]: 0.72 nmol/min/mg; Km at 0.5 h [37]: 21.5 µM; Vd [38]: 2.54 L/kg; Km at 0.25 h ([39]; liver microsomes): 42.4 µM; Vmax ([39]; microsomes, 0.25 h): 3.58 nmol/min/mg; blood plasma ratio at 10 min, 0.25 µM [40]: 1.01; Cmax [41]: 0.02 µg/mL; Ratio [42]: 1; clearance [43]: 3.6 L/h/kg; bioavailability [44]: 1.2%; Tmax [45]: 60 min; CL free [46]: 208 µL/min/mg; Vd [47]: 3.29 L/kg; half-life [48]: 30 min; AUC [49]: 1.55 µg·h/mL; Cmax [50]: 1.04 µg/mL; Cmax [51]: 0.04 µg/mL; Tmax [52]: 60 min
